Results from ChEMBL document CHEMBL1131686, “Synthesis and biological activities of topoisomerase I inhibitors, 6-N-amino analogues of NB-506” (Bioorg Med Chem Lett, 1999).

Legend:
MKN-45 [1] = assay: Cytotoxicity against human stomach cancer cells (MKN-45) after intravenous administration (5 times/week for 2 weeks after tumor grew to 0.2 cme3 or larger); type: functional, cell-based; conditions: MKN-45, 336 h
[2] = biological target: Epidermal growth factor receptor (Homo sapiens, UniProt P00533); assay: In vitro activity against Epidermal growth factor receptor (using poly(Glu4Tyr1) as a substrate)
Chain of Epidermal growth factor receptor (P00533 whole entry): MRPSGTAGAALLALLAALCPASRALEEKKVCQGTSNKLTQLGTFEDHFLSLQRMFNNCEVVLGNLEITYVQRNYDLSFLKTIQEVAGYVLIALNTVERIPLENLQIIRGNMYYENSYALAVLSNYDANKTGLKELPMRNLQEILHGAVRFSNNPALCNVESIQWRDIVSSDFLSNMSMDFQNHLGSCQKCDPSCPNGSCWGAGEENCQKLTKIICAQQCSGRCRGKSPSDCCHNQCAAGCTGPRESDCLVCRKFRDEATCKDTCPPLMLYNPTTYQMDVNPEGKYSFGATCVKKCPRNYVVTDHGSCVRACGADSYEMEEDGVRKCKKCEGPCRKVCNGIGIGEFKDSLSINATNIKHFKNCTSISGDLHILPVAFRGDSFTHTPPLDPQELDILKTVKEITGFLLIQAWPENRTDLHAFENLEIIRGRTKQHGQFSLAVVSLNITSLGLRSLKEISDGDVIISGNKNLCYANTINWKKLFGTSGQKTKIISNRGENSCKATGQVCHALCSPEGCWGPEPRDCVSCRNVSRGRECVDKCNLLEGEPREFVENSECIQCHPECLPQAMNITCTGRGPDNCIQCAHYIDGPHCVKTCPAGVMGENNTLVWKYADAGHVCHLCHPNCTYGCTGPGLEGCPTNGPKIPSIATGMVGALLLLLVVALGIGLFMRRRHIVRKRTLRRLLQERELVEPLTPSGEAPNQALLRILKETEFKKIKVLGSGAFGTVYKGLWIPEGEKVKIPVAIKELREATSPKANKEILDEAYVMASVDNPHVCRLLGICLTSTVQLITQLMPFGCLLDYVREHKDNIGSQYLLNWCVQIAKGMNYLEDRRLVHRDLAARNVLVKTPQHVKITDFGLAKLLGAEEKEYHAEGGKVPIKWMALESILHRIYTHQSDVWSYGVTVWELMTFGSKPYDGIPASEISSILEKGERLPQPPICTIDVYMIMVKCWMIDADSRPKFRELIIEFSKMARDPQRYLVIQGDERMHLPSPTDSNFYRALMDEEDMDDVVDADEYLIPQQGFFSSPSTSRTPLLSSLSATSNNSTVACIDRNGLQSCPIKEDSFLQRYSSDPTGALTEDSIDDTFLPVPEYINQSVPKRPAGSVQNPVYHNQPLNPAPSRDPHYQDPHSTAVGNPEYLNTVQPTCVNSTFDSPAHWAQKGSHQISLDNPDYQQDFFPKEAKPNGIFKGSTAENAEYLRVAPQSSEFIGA

P388 [3] = assay: Effect on the formation of protein-DNA complex in P388 cells K+/SDS method; type: functional, Mus musculus
MKN-45 [4] = assay: In vitro cytotoxicity (CTX) against human stomach cancer cells (MKN-45) using sulforhodamine B dye-staining method; type: functional, cell-based
[5] = Ratio of LD10 to that of GID75 was determined; expressed as safety margin; type: functional
DNA topoisomerase II = DNA topoisomerase II (Homo sapiens, UniProt P11388+Q02880); assay: In vitro activity against topoisomerase-2 mediated cleavage of supercoiled pBR322 plasmid DNA; type: functional
[6] = Lethal dose after intravenous administration (5 times/week for 2 weeks after tumor grew to 0.2 cme3 or larger) in mice; type: toxicity; conditions: mouse, in vivo, 336 h
Mus musculus = assay: Cytotoxicity against human stomach cancer cells (MKN-45) implanted subcutaneously into a side flank of nude mice; type: functional, Cancer cell lines
DNA topoisomerase 1 = biological target: T1, DNA topoisomerase 1 (Homo sapiens, UniProt P11387); assay: In vitro activity against topoisomerase-1 mediated cleavage of supercoiled pBR322 plasmid DNA; type: functional
T1 sequence (P11387 whole entry): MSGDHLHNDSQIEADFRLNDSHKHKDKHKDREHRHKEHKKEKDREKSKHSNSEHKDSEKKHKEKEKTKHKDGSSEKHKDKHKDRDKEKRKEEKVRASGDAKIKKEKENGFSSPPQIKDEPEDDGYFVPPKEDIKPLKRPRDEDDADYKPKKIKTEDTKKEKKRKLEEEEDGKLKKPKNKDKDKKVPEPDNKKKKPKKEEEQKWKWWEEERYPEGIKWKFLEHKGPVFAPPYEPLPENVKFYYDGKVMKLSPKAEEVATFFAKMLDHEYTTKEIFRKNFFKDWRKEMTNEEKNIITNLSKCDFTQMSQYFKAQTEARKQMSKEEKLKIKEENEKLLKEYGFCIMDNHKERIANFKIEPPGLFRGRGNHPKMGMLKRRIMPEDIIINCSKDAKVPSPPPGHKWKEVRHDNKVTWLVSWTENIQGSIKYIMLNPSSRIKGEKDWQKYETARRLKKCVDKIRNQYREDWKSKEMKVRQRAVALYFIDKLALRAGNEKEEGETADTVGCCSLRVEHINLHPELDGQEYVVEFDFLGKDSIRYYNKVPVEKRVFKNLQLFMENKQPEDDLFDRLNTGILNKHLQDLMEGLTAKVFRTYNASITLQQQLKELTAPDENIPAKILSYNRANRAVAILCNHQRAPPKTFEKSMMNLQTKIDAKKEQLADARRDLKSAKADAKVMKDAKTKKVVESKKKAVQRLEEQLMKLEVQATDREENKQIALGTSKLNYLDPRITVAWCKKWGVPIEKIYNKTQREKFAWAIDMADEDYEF

P388 [7] = assay: In vitro cytotoxicity (CTX) against murine leukemia cells (P388) using colorimetric tetrazolium-formazan method; type: functional, cell-based; conditions: Mus musculus
[8] = biological target: Protein kinase C alpha type (Homo sapiens, UniProt P17252); assay: In vitro activity evaluated against protein kinase C (using histone II-As as a substrate)

O=CNN1C(=O)c2c(c3c4cccc(O)c4n(C4OC(CO)C(O)C(O)C4O)c3c3[nH]c4c(O)cccc4c23)C1=O (stereo unspecified)
IC50 (MKN-45 [1]): 310 nM
IC50 [2]: > 200000 nM
EC200 (P388 [3]): 1.4 µM
IC50 (MKN-45 [4]): 310 nM
Activity [5]: 1.4 Ratio
EC50 (DNA topoisomerase II): > 50000 nM
LD10 [6]: 1600 mg/me2
GID75 (Mus musculus): 1152 mg/me2
EC50 (DNA topoisomerase 1): 700 nM
IC50 (P388 [7]): 75 nM
IC50 [8]: > 200000 nM
